Key:
[1] = In vitro metabolic stability in human plasma; assay type: in vitro ADME; settings: human, plasma; 37°C, compound 10 μM; read-out: Human plasma T1/2
[2] = In vitro metabolic stability in human intestinal S9; assay type: in vitro ADME; settings: human, intestinal S9; 37°C, S9 1 mg/mL, compound 10 μM, NADPH regeneration system; read-out: Human intestinal S9 T1/2
[3] = In vitro metabolic stability in rat plasma; assay type: in vitro ADME; settings: rat, plasma; 37°C, compound 10 μM; read-out: Rat plasma T1/2
[4] = In vitro metabolic stability in rat intestinal S9; assay type: in vitro ADME; settings: rat, intestinal S9, pH 7.4; 37°C, S9 1 mg/mL, compound 10 μM, NADPH regeneration system; read-out: Rat intestinal S9 T1/2
[5] = Solid stability test (25°C, RH 60%, 30 days); assay type: physicochemical; settings: 25°C±2°C, relative humidity 60%±2%
[6] = Pharmacokinetics after single intravenous administration in rats (plasma voriconazole); settings: both, SD, rat, in vivo, iv, 2.5 mg/kg
Summary of the method: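 SD rats (180–220 g, 3 male/3 female per group) given single tail-vein dose of 2.5 mg/kg (as voriconazole). Plasma voriconazole measured in blood sampled at multiple time points post-dose.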

[7] = system: Candida albicans ATCC10231; assay: Systemic fungal infection in mice, administration by gavage, survival; assay type: in vivo; settings: ICR mice, 5 mg/kg (calculated as voriconazole) once daily for 5 days
Summary of the method: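 Male ICR mice (18-22 g) infected via tail vein with C. albicans ATCC10231 at 5*10^6/ml, 0.1 ml/10 g. Starting 2 h post-infection, 5 mg/kg (as voriconazole) given by gavage once daily for 5 days; saline for model group. Groups of 10; survival time recorded over 7 days.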

CC(OC(=O)SCCO)[n+]1cnn(C[C@](O)(c2ccc(F)cc2F)[C@@H](C)c2ncncc2F)c1 (some centres unmarked) [Compound 16037]
half-life at 10 µM [1]: 7.75 ± 0.56 min
half-life at 10 µM [2]: 10.8 ± 1.97 min
half-life at 10 µM [3]: 7.65 ± 0.78 min
half-life at 10 µM [4]: 16 ± 6.88 min
Content increase of total impurity (25° C., placed for 30 days) [5]: 2.15%
AUClast [6]: 9120 ± 3254 ng·h/mL
T1/2 [6]: 148 ± 45 min
survival rate of mice, day 1 ([7]; day 1): 100%
survival rate of mice, day 2 ([7]; day 2): 100%
survival rate of mice, day 3 ([7]; day 3): 100%
survival rate of mice, day 4 ([7]; day 4): 100%
survival rate of mice, day 5 ([7]; day 5): 90%
survival rate of mice, day 6 ([7]; day 6): 80%
survival rate of mice, day 7 ([7]; day 7): 80%

Reference: patent US11040958B2, “Triazole antimicrobial derivative, pharmaceutical composition and use thereof” (priority 2017, dated 2021)
